Read-outs that look alike come from different tables or passages of the source.
Legend:
[1] = tested on: Wnt activity (SW480 colon carcinoma cells stably expressing the Sp5-Luc reporter gene); test: Wnt activity screening assay (Sp5-Luc reporter gene assay); format: cell-based, human; conditions: Homo sapiens; for EC50: 36 to 48 hours; for inhibition at 10 µM: read-out: percent inhibition at 10 μM (given for EC50 >10 μM), 10 μM
In short: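 SW480 colon carcinoma cells stably carrying a lentiviral luciferase reporter driven by an Sp5 promoter with eight TCF/LEF sites, plated at 4,000 cells/well in DMEM with 1% FBS. Compound exposure for 36–48 h at 37 °C, then luminescence read. Signals normalized to DMSO; EC50 from four-parameter nonlinear fit.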

recombinant GSK3β kinase = recombinant GSK3β kinase (Homo sapiens (Human), UniProt P49841); test: GSK3β kinase assay (Ser/Thr 09 peptide Z-lyte, FRET); format: biochemical;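 note: FRET read-out as coumarin over fluorescein emission ratio, compounds incubated one hour at room temperature, IC50 from dose-response curve fit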
[2] = tested on: Tau phosphorylation at Ser396 (pSer396) in SH-SY5Y cells; test: Tau phosphorylation at Ser396 (pSer396) cell assay, ELISA/western blot; format: cell-based, human
Description: SH-SY5Y cells (human neuroblastoma) were cultured in DMEM/F-12 medium supplemented with 15% FBS, Non-essential Amino Acid and Penicillin/Streptomycin. Two days before treatment, cells were seeded onto 96 well plates at 5×10^4 cells/well.
The above synthesized compounds were screened using the cell assay procedure to assess decrease Tau phosphorylation at Ser396 (pSer396) described below.
DMSO-resuspended compounds were dispensed to 8 wells as a serial titration from 10 μM to 4.6 nM final in medium and cells were exposed overnight (16-18 h) in a humidified incubator at 36.6c before harvest.
Cells were lysed with RIPA buffer complemented with phosphatase and protease inhibitors then lysates were spun down at 12,000 g for 10 min to remove any cellular debris. Lysates are then either directly tested for pSer396 by ELISA (Life Technology, Kit KHB7031) or loaded on NuPage Bis-Tris gels for western blot analysis. Colorimetric detection of ELISA signal is performed by Cytation3 plate reader (Biotek) and the chemiluminescence signal for HRP-linked antibodies used in western blotting is detected using a Carestream Image Station. The same pSer396 antibody is used for detection of pTau in both assays.
Blot densitometry for pSer396 and β-actin were analyzed using ImageJ (NIH) and pSer396 Tau ELISA signal was used to plot, draw the curve fitting, and determine each compounds EC50 in Prism (GraphPad).

[3] = tested on: SW480 colon carcinoma cells; test: Cell viability assay (CellTiter-Glo); format: cell-based, human; conditions: Homo sapiens; for EC50: 96 h, four days, CellTiter-Glo; for inhibition at 10 µM: read-out: percent inhibition at 10 μM (given for EC50 >10 μM), 10 μM
[4] = tested on: LL29 cells (primary human fibroblasts derived from IPF patients), α-smooth muscle actin; test: Inhibition of fibrotic process: TGF-β1-treated primary human fibroblasts, αSMA staining; format: cell-based; conditions: Homo sapiens, Fibroblast; for EC50: 96 h, TGF-β1 20 ng/mL, 4 days, % cells positive for αSMA; for inhibition at 10 µM: read-out: percent inhibition at 10 μM (given for EC50 >10 μM), TGF-β1, αSMA, 10 μM;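 for all read-outs here: controls were TGF-β1-stimulated wells with DMSO vehicle as the positive reference and cells given DMSO alone as the negative reference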
[5] = tested on: IL-6 in human peripheral blood mononuclear cells (huPBMCs); test: IL-6 inhibition in LPS-stimulated human peripheral blood mononuclear cells (HTRF); format: cell-based; conditions: Homo sapiens, PBMC; for EC50: LPS 50 ng/mL, 22 hours, IL-6 HTRF; for inhibition at 10 µM: read-out: percent inhibition at 10 μM (given for EC50 >10 μM), LPS, IL-6, 10 μM
In short: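 Fresh normal human PBMCs at 1×10e6 cells/mL in RPMI with 1% FBS received compound, then 50 ng/mL E. coli 0111:B4 LPS 2 h later, and were incubated a further 22 h at 37° C. IL-6 read by HTRF (665/620 nm ratio), normalized to DMSO; EC50 from 4-parameter fit.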

[6] = biological target: recombinant DYRK1A kinase (Homo sapiens (Human), UniProt Q13627); test: DYRK1A kinase assay (Ser/Thr 18 peptide Z-lyte, FRET)
[7] = tested on: secreted cytokines TNFα, IL-6 and KC-GRO in BV-2 cells (mouse microglial cells); test: Secreted cytokines in lipopolysaccharide-stimulated mouse glial cell line; format: cell-based; conditions: LPS 250 ng/mL 5 hours, table does not say which cytokine
Description: Representative compounds were screened using the cell-based assay procedure for secreted cytokines in a Lipopolysaccharide-stimulated mouse glial cell line described below.
BV-2 cells (mouse microglial cells) were cultured in 1:1 DMEM medium supplemented with 10% FBS, and 1% penicillin/streptomycin.
BV-2 cells are plated at 35,000 cells/well in a volume of 100 μl for at least 4 hours before compounds are added. DMSO-resuspended compounds were first dispensed in a 96-well plate and serial diluted from 10 μM to 4.6 nM final concentration in medium. Compounds were added to cells overnight. 250 ng/mL of lipopolysaccharide (Escherichia coli O111:B4, SIGMA) was added for 5 hours. Supernatant is removed and saved for further cytokine detection. The original plates with seeded cells were tested for cytotoxicity by measure of adenosine triphosphate (ATP) release by adding CellTiter-Glo® diluted 1:4 in distilled water (G7573, Promega) and transferring lysed cells to a completely black 96-well plate to be read with the Cytation3. Supernatant was then diluted 1:2 with a diluent from V-PLEX cytokine Kit and directly tested for the secreted cytokines TNFα, IL-6 and KC-GRO using electrochemiluminescence (Meso Scale Discovery). The standard curve for each cytokine was used to convert the electrochemiluminescent signal into pg of protein per mL. The signal was used to plot, draw the curve fitting, and determine each compounds EC50 in Prism (GraphPad).

[8] = tested on: pT212Tau in Dyrk1a- and MAPT-overexpressing HEK293T cells; test: Tau phosphorylation at Threonine 212 (pT212Tau) sandwich ELISA in double transfected cells; conditions: Homo sapiens, HEK-293T, read-out: Thr212 EC50 (μM)
[9] = GSK3β kinase, head says EC50, method says IC50, ATP 46 μM
[10] = Homo sapiens, SH-SY5Y cells, overnight (16-18 h), read-out: pSer396 Tau EC50
[11] = DYRK1A kinase, head says EC50, method says IC50, ATP 30 μM

Chain of recombinant GSK3β kinase (P49841 whole entry): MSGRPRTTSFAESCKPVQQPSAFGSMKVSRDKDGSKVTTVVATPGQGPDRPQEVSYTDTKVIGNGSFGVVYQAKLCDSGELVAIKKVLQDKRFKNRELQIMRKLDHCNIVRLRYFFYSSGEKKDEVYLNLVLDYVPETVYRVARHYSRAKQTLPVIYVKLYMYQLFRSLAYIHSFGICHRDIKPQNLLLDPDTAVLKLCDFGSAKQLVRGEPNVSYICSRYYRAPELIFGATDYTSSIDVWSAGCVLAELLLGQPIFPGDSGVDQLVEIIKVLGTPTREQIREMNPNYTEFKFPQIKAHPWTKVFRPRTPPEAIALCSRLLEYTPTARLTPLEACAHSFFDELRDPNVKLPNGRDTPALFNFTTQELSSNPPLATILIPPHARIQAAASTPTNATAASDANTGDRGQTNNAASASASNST

Row | SMILES | EC50 [1] | inhibition at 10 µM [1] | EC50 (recombinant GSK3β kinase; [9]) | EC50 [2, 10] | EC50 [3] | inhibition at 10 µM [3] | EC50 [4] | EC50 [5] | inhibition at 10 µM [5] | EC50 [6, 11] | EC50 (recombinant GSK3β kinase) | EC50 [7] | EC50 [6] | EC50 [8] | inhibition at 10 µM [4] | EC50 ([2]; Homo sapiens, SH-SY5Y, read-out: EC50 in the Tau assay) | EC50 ([2]; control DYRK1A inhibitors, printed '>10 M' (μ apparently lost), read-out: EC50 in the Tau assay)
1 | CN1CCC(C(=O)Nc2cc3cc(-c4ccccn4)ccc3cn2)CC1 [Compound 3, 1-Methyl-N-(6-(pyridin-2-yl)isoquinolin-3-yl)piperidine-4-carboxamide] | > 10000 nM | 13.7% | 5310 nM | > 10000 nM | > 10000 nM | 50% | 6010 nM | > 10000 nM | 5.1% | 260 nM |  |  |  |  |  |  | 
2 | O=C(CN1CCOCC1)Nc1cc2cc(-c3cncc(F)c3)ccc2cn1 [Compound 22, N-(6-(5-Fluoropyridin-3-yl)isoquinolin-3-yl)-2-morpholinoacetamide] | > 10000 nM | 10.9% |  |  | > 10000 nM | 17.2% | 2060 nM | > 10000 nM | 22.9% |  | 1770 nM | 1320 nM | 70 nM | 0.253 µM |  |  | 
3 | O=C(Nc1cc2cc(-c3cncc(C(F)F)c3)ccc2cn1)c1cccc(C2CCNCC2)c1 [Compound 26, N-(6-(5-(Difluoromethyl)pyridin-3-yl)isoquinolin-3-yl)-3-(piperidin-4-yl)benzamide] | 1550 nM |  | > 10000 nM |  | 1860 nM |  | 1330 nM | 1320 nM |  | 29 nM |  | 479 nM |  | 1.4 µM |  |  | 
4 | CN1CCC(c2cccc(C(=O)Nc3cc4cc(-c5cncc(C(F)F)c5)ccc4cn3)c2)CC1 [Compound 27, N-(6-(5-(Difluoromethyl)pyridin-3-yl)isoquinolin-3-yl)-3-(1-methylpiperidin-4-yl)benzamide] | 1110 nM |  | > 10000 nM |  | 1950 nM |  | 979 nM | 9160 nM |  | 29 nM |  | 847 nM |  | 6.8 µM |  |  | 
5 | CN1CCN(c2cc(C(=O)Nc3cc4cc(-c5cncc(C(F)F)c5)ccc4cn3)ccn2)CC1 [Compound 28, N-(6-(5-(Difluoromethyl)pyridin-3-yl)isoquinolin-3-yl)-2-(4-methylpiperazin-1-yl)isonicotinamide] | 4680 nM |  | > 10000 nM |  | 4150 nM |  | 1520 nM | 7430 nM |  | 11 nM |  | 295 nM |  | 1.6 µM |  |  | 
6 | CN1CCN(CC(=O)Nc2cc3cc(-c4cncc(C(F)(F)F)c4)ccc3cn2)CC1 [Compound 29, 2-(4-Methylpiperazin-1-yl)-N-(6-(5-(trifluoromethyl)pyridin-3-yl)isoquinolin-3-yl)acetamide] | 9840 nM |  | > 10000 nM | > 10000 nM | 4000 nM |  | 4020 nM | > 10000 nM | 4.3% | 608 nM |  |  |  |  |  |  | 
7 | CN1CCC(C(=O)Nc2cc3cc(-c4cncc(CO)c4)ccc3cn2)CC1 [Compound 31, N-(6-(5-(Hydroxymethyl)pyridin-3-yl)isoquinolin-3-yl)-1-methylpiperidine-4-carboxamide] | 862 nM |  |  | 9100 nM | 859 nM |  | 450 nM | 8940 nM |  |  | 698 nM |  | 3 nM |  |  |  | 
8 | CC(=O)Nc1cncc(-c2ccc3cnc(NC(=O)C4CCN(C)CC4)cc3c2)c1 [Compound 47, N-(6-(5-Acetamidopyridin-3-yl)isoquinolin-3-yl)-1-methylpiperidine-4-carboxamide] | 1260 nM |  | 487 nM | > 10000 nM | 6980 nM |  | 556 nM | 5990 nM |  | 2 nM |  |  |  |  |  |  | 
9 | O=C(CN1CCOCC1)Nc1cc2cc(-c3cccnn3)ccc2cn1 [Compound 66, 2-morpholino-N-(6-(pyridazin-3-yl)isoquinolin-3-yl)acetamide] | > 10000 nM | 8.2% |  |  | > 10000 nM | 17.5% | > 10000 nM | > 10000 nM | 8.1% |  | 859 nM | 2970 nM | 123 nM | 0.791 µM | 10.6% |  | 
10 | O=C(CN1CCCC1)Nc1cc2cc(-c3cnccn3)ccc2cn1 [Compound 74, N-(6-(Pyrazin-2-yl)isoquinolin-3-yl)-2-(pyrrolidin-1-yl)acetamide] | > 10000 nM | 17.5% | 1690 nM |  | > 10000 nM | 125% | > 10000 nM | > 10000 nM | 4.9% | 94 nM |  | 1430 nM |  | 2.1 µM | 18.7% |  | 
11 | O=C(CN1CCOCC1)Nc1cc2cc(-c3cnccn3)ccc2cn1 [Compound 79, 2-Morpholino-N-(6-(pyrazin-2-yl)isoquinolin-3-yl)acetamide] | > 10000 nM | 7.9% | 1310 nM |  | > 10000 nM | 24.8% | > 10000 nM | > 10000 nM | 3.9% | 79 nM |  | 1700 nM |  | 0.959 µM | 17.2% |  | 
12 | CN1CCCC(C(=O)Nc2cc3cc(-c4cnccn4)ccc3cn2)CC1 (stereo not drawn) [Compound 80, 1-Methyl-N-(6-(pyrazin-2-yl)isoquinolin-3-yl)azepane-4-carboxamide] | > 10000 nM | 9.6% | 1560 nM |  | > 10000 nM | 32% | 9130 nM | > 10000 nM | 4.9% | 27 nM |  |  |  | 1.4 µM |  |  | 
13 | CC(C)(O)CN1CCCC(C(=O)Nc2cc3cc(-c4cnccn4)ccc3cn2)CC1 (stereo not drawn) [Compound 82, 1-(2-Hydroxy-2-methylpropyl)-N-(6-(pyrazin-2-yl)isoquinolin-3-yl)azepane-4-carboxamide] | > 10000 nM | 3.4% |  |  | > 10000 nM | 20% | 3150 nM | > 10000 nM | 9.9% |  | 1540 nM | 717 nM | 27 nM | 0.192 µM |  |  | 
14 | COc1ccc2c(c1)[nH]c1c(C)nccc12 [Harmine, reference compound] |  |  |  |  |  |  |  |  |  |  |  |  |  |  |  | > 10000 nM | 
15 | CCN1/C(=C/C(C)=O)Sc2ccc(O)cc21 [Indy, reference compound] |  |  |  |  |  |  |  |  |  |  |  |  |  |  |  |  | > 10000 nM

Reference: patent US10653688B2, “6-(6-membered heteroaryl and aryl)isoquinolin-3-yl carboxamides and preparation and use thereof” (Samumed, LLC, priority 2017, dated 2020)
